Test results published in ChEMBL document CHEMBL3885861, “Open TG-GATES”.

Species: Rattus norvegicus
Test: Open TG-GATES - Regimen: Single
Type: toxicity, organism-based, Sprague-Dawley
Design: regimen Single, gender Male, age 6 weeks
Conditions: in vivo, po, 450 mg/kg, route gavage, dose level Low; for APTT / Bas / Eos / Fbg / Hb / Ht / Lym / MCH / MCHC / MCV / Mono / Neu / Plat / RBC / Ret / WBC: tissue Blood; for KIDNEY_L / KIDNEY_R / KIDNEY_TOTAL: tissue Kidney; for LIVER: tissue Liver; for ALP / ALT / AST / BUN / CRE / Ca / Cl / DBIL / GLC / IP / K / LDH / Na / PL / RALB / TBIL / TC / TG / TP / gamma-GTP: tissue Plasma

## CC(=O)Oc1ccccc1C(=O)O [ASPIRIN]
3 h
  TERMINAL_BW: 217.1 g
  APTT: 19.8 s
  Bas: 0%
  Eos: 1%
  Fbg: 230.2 mg/dL
  Hb: 13.8 g/dL
  Ht: 38.5%
  Lym: 70%
  MCH: 21.2 pg
  MCHC: 36%
  MCV: 59 fL
  Mono: 3.4%
  Neu: 24.4%
  Plat: 136.3 x10_4/uL
  RBC: 653 x10_4/ul
  Ret: 7.3%
  WBC: 89.4 x10_2/uL
  KIDNEY_L: 0.9 g
  KIDNEY_R: 0.9 g
  KIDNEY_TOTAL: 1.8 g
  LIVER: 8.7 g
  ALP: 1084 IU/L
  ALT: 45 IU/L
  AST: 85.8 IU/L
  BUN: 14.4 mg/dL
  CRE: 0.4 mg/dL
  Ca: 9 mg/dL
  Cl: 103.6 meq/L
  DBIL: 0.06 mg/dL
  GLC: 189.2 mg/dL
  IP: 8.7 mg/dL
  K: 3.3 meq/L
  LDH: 228.8 IU/L
  Na: 141.2 meq/L
  PL: 96.6 mg/dL
  RALB: 3.6 g/dL
  TBIL: 0.1 mg/dL
  TC: 60.4 mg/dL
  TG: 20.4 mg/dL
  TP: 5.7 g/dL
  gamma-GTP: 1.2 IU/L
6 h
  TERMINAL_BW: 218.6 g
  APTT: 21.5 s
  Bas: 0%
  Eos: 0.8%
  Fbg: 230.4 mg/dL
  Hb: 13.9 g/dL
  Ht: 38.2%
  Lym: 71%
  MCH: 22.2 pg
  MCHC: 36.3%
  MCV: 61.1 fL
  Mono: 3.2%
  Neu: 24%
  Plat: 124.8 x10_4/uL
  RBC: 626.8 x10_4/ul
  Ret: 8.1%
  WBC: 90.8 x10_2/uL
  KIDNEY_L: 1 g
  KIDNEY_R: 1 g
  KIDNEY_TOTAL: 2 g
  LIVER: 9 g
  ALP: 834.4 IU/L
  ALT: 34.8 IU/L
  AST: 72.6 IU/L
  BUN: 14.6 mg/dL
  CRE: 0.4 mg/dL
  Ca: 9.2 mg/dL
  Cl: 105 meq/L
  DBIL: 0.056 mg/dL
  GLC: 204 mg/dL
  IP: 7.7 mg/dL
  K: 3.4 meq/L
  LDH: 221.2 IU/L
  Na: 141 meq/L
  PL: 113.2 mg/dL
  RALB: 3.5 g/dL
  TBIL: 0.1 mg/dL
  TC: 67.8 mg/dL
  TG: 32.8 mg/dL
  TP: 5.6 g/dL
  gamma-GTP: 1 IU/L
9 h
  TERMINAL_BW: 215.1 g
  APTT: 21.4 s
  Bas: 0%
  Eos: 0.8%
  Fbg: 220.4 mg/dL
  Hb: 13.6 g/dL
  Ht: 38.2%
  Lym: 68.2%
  MCH: 21.9 pg
  MCHC: 35.5%
  MCV: 61.8 fL
  Mono: 2.2%
  Neu: 28%
  Plat: 124.6 x10_4/uL
  RBC: 619.4 x10_4/ul
  Ret: 8.4%
  WBC: 94.9 x10_2/uL
  KIDNEY_L: 1 g
  KIDNEY_R: 1 g
  KIDNEY_TOTAL: 1.9 g
  LIVER: 7.9 g
  ALP: 828 IU/L
  ALT: 34.4 IU/L
  AST: 77.4 IU/L
  BUN: 13.2 mg/dL
  CRE: 0.4 mg/dL
  Ca: 9.1 mg/dL
  Cl: 106.8 meq/L
  DBIL: 0.05 mg/dL
  GLC: 201.2 mg/dL
  IP: 8.3 mg/dL
  K: 3.4 meq/L
  LDH: 210.2 IU/L
  Na: 141.2 meq/L
  PL: 93.4 mg/dL
  RALB: 3.3 g/dL
  TBIL: 0.096 mg/dL
  TC: 55.2 mg/dL
  TG: 12.6 mg/dL
  TP: 5.4 g/dL
  gamma-GTP: 0.8 IU/L
24 h
  TERMINAL_BW: 217.9 g
  APTT: 24.7 s
  Bas: 0.4%
  Eos: 1%
  Fbg: 222 mg/dL
  Hb: 14.4 g/dL
  Ht: 38.6%
  Lym: 79.8%
  MCH: 22.7 pg
  MCHC: 37.2%
  MCV: 60.9 fL
  Mono: 2.2%
  Neu: 16.2%
  Plat: 129 x10_4/uL
  RBC: 633.6 x10_4/ul
  Ret: 7.2%
  WBC: 106.4 x10_2/uL
  KIDNEY_L: 1 g
  KIDNEY_R: 1 g
  KIDNEY_TOTAL: 1.9 g
  LIVER: 9.2 g
  ALP: 905.4 IU/L
  ALT: 43.4 IU/L
  AST: 82.4 IU/L
  BUN: 15.8 mg/dL
  CRE: 0.5 mg/dL
  Ca: 10.4 mg/dL
  Cl: 104.6 meq/L
  DBIL: 0.048 mg/dL
  GLC: 196.4 mg/dL
  IP: 8.6 mg/dL
  K: 3.7 meq/L
  LDH: 199.2 IU/L
  Na: 141 meq/L
  PL: 107 mg/dL
  RALB: 3.5 g/dL
  TBIL: 0.092 mg/dL
  TC: 56 mg/dL
  TG: 39.6 mg/dL
  TP: 5.6 g/dL
  gamma-GTP: 1 IU/L
